Here are results for 4 molecules from patent US20110153302A1, “IDENTIFICATION OF DRUG EFFECTS ON SIGNALING PATHWAYS USING INTEGER LINEAR PROGRAMMING” (Massachusetts Institute of Technology, priority 2009, published 2011).

One assay has as its target p38α (Homo sapiens, UniProt Q16539). The following applies: refs [32],[45]; cited from earlier work.
The next assay deals with JNK1/2 kinases. The settings on record: kinase profiles, ref [32]; cited from earlier work.
In a further assay the test system is HepG2 specific topology. Description: Drug-induced topology alterations: ILP fit of the HepG2 specific topology to drug-induced phosphoprotein data. The settings on record: for Drug effect on the JNK→c-JUN branch / Drug effect on downstream reactions of the TGFα branch (TGFα→GRB2→SOS→RAS→PI3K and RAS→RAF1→MEK1/2→ERK1/2): reactions removed from HepG2 topology by ILP, Gefitinib 3 uM; for Effect on c-Jun signaling: summary statement in the personalized medicine section. An excerpt: Here, we describe how the Boolean model described in [18] can be reformulated as an ILP. Note that such a transformation was recently performed for a different problem, namely the satisfiability, by. A pathway is defined as a set of reactions i=1, . . . , nr and species j=1, . . . , ns. Each reaction has three corresponding index sets, namely the index set of signaling molecules Ri, inhibitors Ii, and “products” Pi (“product” can also correspond to the phosphorylation level of the protein). These sets are all subsets of the species index set (Ri,Ii,Pi⊂{1, . . . , ns}). Typically, these subsets have very small cardinality (few species), e.g., |Ri|=0,1,2;|Ii|=0,1;|Pi|=1,2;|Ri|+|Ii|=1,2. A reaction takes place if and only if all reagents and no inhibitors are present. If a reaction takes place, all products are formed. Note that reactions without products as well as reactions with neither reagents nor inhibitors will be excluded here.
While typically the set of species is known, the set of reactions is not known. Rather, only a superset of potential reactions is postulated. The goal of the proposed formulation is to find an optimal (in some sense) set of reactions out of such a superset. To that extent binary variables yi are introduced, indicating if a reaction is possible or not (yi=0 connection not present, yi=1 connection present).
A set of experiments is performed, indexed by the superscript k=1, . . . , ne. In each experiment a subset of species is introduced to the system and another subset is excluded from the system. These are summarized by the index sets M^k,1 and M^k,0 respectively (two for each experiment). In the proposed formulation, constants are introduced for all such species, respectively xj^k=1 and xj^k=0. […] In the experiments a third subset of the species is measured (index set M^k,2) and for the remaining species no information is available. In the proposed formulation for each of the experiments and each such species a binary decision variable xj^kε{0,1} is introduced indicating if the species j is present (xj^k=1) or not (xj^k=0) in the experiment k according to the model predictions. […] This has some computational advantages.
In the present study, our ILP formulation was utilized in two different circumstances. For the creation of the cell-type specific pathway using combinations of inhibitors and stimuli our ILP formulation included 27887 constraints and 9732 variables. For each drug case, where the reduced and optimized pathway was utilized, we had 2477 constraints and 947 variables.
For the identification of the drug effects we make use of the second dataset in HepG2s where drugs are applied together with the same set of ligands. In this case, the ILP formulation is being used with the HepG2 specific topology (topology obtained from the previous step) and not the generic map.

For the next assay, the system named is RAF/MEK/ERK pathway. The settings on record: human tumor cell lines, ref [33]; cited from earlier work.
In the next assay the test system is HepG2 cells. Kind of assay: Bead-based multiplexed (Luminex xMAP) measurement of 13 key phosphorylation events in cells treated with drugs and ligands. The assay is classed as cell-based. Here is the method:
HepG2 cells were purchased from ATCC (Manassas, Va.), and seeded on 96-well plates coated with collagen type I-coated (BD Biosciences, Franklin Lakes, N.J.) at 30,000 cells/well in DME medium containing 10% Fetal Bovine Serum (FBS). The following morning, cells were starved for 4 hours and treated with inhibitors and/or drugs. Kinase inhibitors were used at concentrations sufficient to inhibit at least 95% the phosphorylation of the nominal target as determined by dose-response assays (presented in [17]). […] was chosen as the nominal target for Lapatinib, Erlotinib, and Gefitinib. The following saturated concentrations were used: p38 (PHA818637, 20 nM), MEK (PD325901, 100 nM) and cMET (JNJ38877605, 1 μM), PI3K (PI-103, 10 μM), Lapatinib at 3 uM [47], Erlotinib at 1 uM [47], Gefitinib at 3 uM [47], and Sorafenib at 3 uM (based on its inhibitory activity on ERK1/2 phosphorylation). Following incubation for 45 minutes with inhibitors and/or drugs cells were treated with saturated levels of 5 ligands: Tumor Necrosis Factor alpha (TNFα) at 100 ng/ml, Interleukin 1 alpha (IL1α) at 10 ng/ml, Insulin (INS) at 2 uM, Transforming Growth Factor (TGFα) at 100 ng/ml, and Hepatocytes Growth Factor (HGF) at 100 ng/ml. Each ligand was added alone or in pairs and cell lysates were collected at 0, 5, and 25 minutes following the cytokine stimulation. The 5 and 25 minutes lysates were mixed together in 1:1 ratio and the mixed lysate was measured as an indicator of the “average early signaling response”. The 5 and 25 minute time points were identified in a preliminary experiment as the optimal time points that maximally captured early phosphorylation activities.
(§1) From each lysate we measured 13 phosphorylation activities that we considered “key phosphorylation events” using a Luminex 200 system (Luminex Corp, Austin, Tex.). The 13-plex phospho-protein bead set from Bio-Rad was used to assay p70S6K (Thr421/Ser424), CREB (Ser133), p38 (Thr180/Tyr182), MEK1 (Ser217/Ser221), JNK (Thr183/Tyr185), HSP27 (Ser78), ERK1/2 (Thr202/Tyr204, Thr185/Tyr187), c-JUN (Ser63), IRS-1 (Ser636/Ser639), IκB-α (Ser32/Ser36), Histone H3 (Ser10), Akt (Ser473), and IR-β (Tyr1146). Data were normalized and plotted using with DataRail. For the construction of the dose response curve in FIG. 3i, HepG2 were starved for 4 hours and then incubated with Gefitinib (from 20 uM down to 27 nM-3 fold dilution) for 45 minutes followed by incubation with IL1α at 10 ng/ml final concentration for 30 minutes. Duplicate lysates were analyzed using the c-JUN (Ser63) beads in the Luminex 200 system.
High-throughput bead-based ELISA-type experiments using xMAP technology (Luminex, Tex., USA) are performed as briefly described in the Materials and Methods section and in [17]. We create two datasets: one for the construction of cell-type specific topology and another for the identification of the mechanisms of drug actions. […] For the purpose of this paper, we refer to “inhibitors” as the compounds for which we know the target and we use them in a concentration capable to block ˜95% of the downstream protein. Conversely, we refer to “drugs” as the compounds for which we assume no a-priori knowledge of their target. For each combination of cytokine and drug/inhibitor we collect cell lysates at 5 and 25 minutes. The two time points are pooled together in 1:1 ratio and the mixed lysates are used as an indicator of the “average early signaling response”. For each treatment we measure 13 protein phosphorylations that we consider “key protein activities” (raw data in FIG. 4). The key phosphorylation signals (listed in Materials and Methods) are chosen based on the availability of the reagents and quality controls performed at the early phases of the experimental setup. […]

A further assay has as its system c-JUN (Ser63). Description: Gefitinib dose response of c-JUN (Ser63) signal in HepG2 after IL1α (FIG. 3i). In kind it is cell-based. The settings on record: Gefitinib 20 uM down to 27 nM, 45 min, IL1α 10 ng/ml, 30 min, linear fit.
Excerpt: as §1

Structures are written as SMILES. Entries after “also recorded” stand apart in the source; their conditions may differ.

Sequence of p38α (Q16539 whole entry): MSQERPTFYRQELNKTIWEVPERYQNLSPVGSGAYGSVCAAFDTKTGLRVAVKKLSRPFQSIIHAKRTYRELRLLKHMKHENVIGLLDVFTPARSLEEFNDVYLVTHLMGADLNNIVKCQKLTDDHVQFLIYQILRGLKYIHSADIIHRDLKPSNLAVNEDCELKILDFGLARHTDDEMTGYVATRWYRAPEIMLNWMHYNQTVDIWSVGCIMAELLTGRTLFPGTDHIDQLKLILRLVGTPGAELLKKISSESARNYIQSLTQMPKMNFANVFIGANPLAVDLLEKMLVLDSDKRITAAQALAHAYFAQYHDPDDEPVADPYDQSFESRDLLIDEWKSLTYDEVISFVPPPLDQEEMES

With `CNC(=O)c1cc(Oc2ccc(NC(=O)Nc3ccc(Cl)c(C(F)(F)F)c3)cc2)ccn1` [Sorafenib], the “Target affinity to p38α” value on p38α is given as “target affinity”. The “Affinity for the directly upstream JNK1/2 kinases” value with JNK1/2 kinases is reported as “no medium or high affinity”. Besides, in the assay on HepG2 specific topology (HepG2 topology, ILP, Sorafenib 3 uM), the “Drug effect on the p38 path” value is “affects the p38 path; also recorded: inhibition of the pathway downstream of p38”. The “Drug effect on the RAF→ERK1/2 reaction” value in the assay on HepG2 specific topology (HepG2 topology, network optimization, Sorafenib 3 uM) was “does not remove the RAF→ERK1/2 reaction”. Also, the “Drug effect on the JNK→c-JUN branch” value with HepG2 specific topology (Erlotinib 1 uM, Sorafenib 3 uM) is “blocks the JNK→c-JUN branch; also recorded: removal of the JNK→cJUN reaction”. Besides, in the assay with RAF/MEK/ERK pathway, the “Inhibition of activation of the RAF/MEK/ERK pathway” value is reported as “does not inhibit activation of the RAF/MEK/ERK pathway in all human tumor cell lines”. For the same molecule, in the assay on HepG2 cells (Sorafenib 3 uM, FIG. 3h), the “HSP27 phosphorylation upon IL1α treatment” value was “complete HSP27 inhibition” and the MEK1 phosphorylation result is given as “reduces but does not block”.
For `CS(=O)(=O)CCNCc1ccc(-c2ccc3ncnc(Nc4ccc(OCc5cccc(F)c5)c(Cl)c4)c3c2)o1` [Lapatinib], the “Drug effect on the PI3K→...→AKT branch” value with HepG2 specific topology (HepG2 topology, ILP, Lapatinib 3 uM) was “not removed”. The “Drug effect on downstream reactions of the TGFα branch (TGFα→GRB2→SOS→RAS→PI3K and RAS→RAF1→MEK1/2→ERK1/2)” value (“Drug effect on downstream reactions” for short) with HepG2 specific topology (Lapatinib 3 uM, Erlotinib 1 uM) was “complete removal of the downstream reactions of the TGFα branch”. Moreover, in the assay with HepG2 specific topology, the “Effect on c-Jun signaling” value is “do not affect c-Jun signaling”. The “TGFα induced MEK1/2, ERK1/2, and AKT phosphosignals” value with HepG2 cells (Lapatinib 3 uM, 45 min before TGFα 100 ng/ml, early response (5 and 25 min), FIG. 3e) is given as “blocks”. In the assay on HepG2 cells (Lapatinib 3 uM, FIG. 3e), the “Activation of AKT by the HGF and INS path” value is recorded as “cannot be blocked”.
In the case of `C#Cc1cccc(Nc2ncnc3cc(OCCOC)c(OCCOC)cc23)c1` [Erlotinib], in the assay with JNK1/2 kinases, the “Affinity for the directly upstream JNK1/2 kinases” value is “no medium or high affinity”. The “Drug effect on the TRAF6→MAP3k7 reaction” value with HepG2 specific topology (HepG2 topology, ILP, Erlotinib 1 uM) is “shows an effect in the TRAF6→MAP3k7 reaction”. Also, the “Drug effect on the JNK→c-JUN branch” value in the assay on HepG2 specific topology (Erlotinib 1 uM, Sorafenib 3 uM) was “has the same effects as Gefitinib; also recorded: removal of the JNK→cJUN reaction”. The “Drug effect on downstream reactions” value in the assay with HepG2 specific topology (Lapatinib 3 uM, Erlotinib 1 uM) was “has the same effects as Gefitinib”. Also, in the assay on HepG2 specific topology, the “Effect on c-Jun signaling” value is on record as “do not affect c-Jun signaling”. Besides, the “IκB-α signals upon IL1α and TNFα stimuli” value in the assay with HepG2 cells (Erlotinib 1 uM, FIG. 4) was “inhibited in an IL1α-dependent but TNFα-independent manner”.
With `COc1cc2ncnc(Nc3ccc(F)c(Cl)c3)c2cc1OCCCN1CCOCC1` [Gefitinib], the “Affinity for the directly upstream JNK1/2 kinases” value in the assay with JNK1/2 kinases is “no medium or high affinity”. In addition, in the assay with c-JUN (Ser63), the “Activation of cJUN signal induced by the IL1α stimuli, dose response” value is reported as “can reduce the activation of cJUN signal; also recorded: does not follow a typical dose-response curve; also recorded: reduces cJUN activation”. For the same molecule, the “Drug effect on the JNK→c-JUN branch” value in the assay with HepG2 specific topology (Erlotinib 1 uM, Sorafenib 3 uM) is “removal of the JNK→c-JUN branch; also recorded: removal of the JNK→cJUN reaction”. In addition, the “Drug effect on downstream reactions” value in the assay with HepG2 specific topology (Lapatinib 3 uM, Erlotinib 1 uM) was “alters the topology in a very similar pattern as Lapatinib”. In the assay with HepG2 specific topology, the “Effect on c-Jun signaling” value is recorded as “affects c-Jun signaling as well as EGFR signaling”. Further, the “IL1α- and (IL1α+TGFα)-induced cJUN activity” value in the assay with HepG2 cells (Gefitinib 3 uM, IL1α 10 ng/ml, FIG. 3f) is on record as “potent inhibition; also recorded: significant reduction of the cJUN activity; also recorded: previously unknown inhibition of cJUN in the IL1α pathway; also recorded: inhibits signaling downstream the Interleukin-1alpha (IL1α) pathway”.
